Literature values, collected in patent US7838691B2, “Palmerolides: methods of preparation and derivatives thereof” (Board of Regents, of the University of Texas System, priority 2007, dated 2010).

Tests used:
[1] = system: several cancer cell lines including melanoma, colon cancer, and renal cancer
[2] = target: bovine brain V-ATPase; settings: in vitro

CC(C)=CC(=O)N/C=C/C(C)=C/[C@@H](C)[C@H]1C/C(C)=C/C=C/CC[C@H](OC(N)=O)[C@@H](O)/C=C/[C@@H](O)CCC/C=C/C(=O)O1 [Palmerolide A]
cytotoxicity [1]: selective cytotoxin | IC50 [2]: ~2 nM
